Values belong to the compound of their own block, whether it stands above or below them.
Key:
[1] = Single oral dose plasma pharmacokinetics and elimination of APAZA and metabolites in mice; format: in vivo, male CD-1 mice; conditions: single oral dose of APAZA, male CD-1 mice
Experimental: Initial single dose pharmacokinetic studies with the APAZA™ compound have been conducted in dogs and mice. A study was completed in order to determine the plasma pharmacokinetics and elimination of the APAZA™ compound and its metabolites (5-ASA, 4-APAA, 5-aceASA and 4-aceAPAA) following single oral dose administration to male CD-1 mice. […] When normalized to molar values, the Cmax values for all the APAZA™ metabolites were less than APAZA™; the values ranged from 2.68 to 13.8 μM. However, the normalized APAZA™ AUC∞ value was not greater than all the other metabolites; these values ranged from […]. […] The Tmax values for APAZA™ and its metabolites were 1 hour and 4 hours, respectively.

[2] = test system: Clostridium difficile toxin A-induced colitis; experiment: Toxin A-induced colitis, chronic oral administration in drinking water for 5 days; format: in vivo, Sprague-Dawley rats
Experimental: Eighteen adult male Sprague-Dawley rats weighing 175-222 grams were divided into 3 groups each consisting of 6 animals: • 4-APAA (AA-002) 100 mg/kg orally+Toxin A (10 μg) injected into the lumen of the colon • Vehicle (DW) orally+Toxin A (10 μg) injected into the lumen of the colon • Vehicle (DW) orally
Following 5 days of 4-APAA administration in drinking water, both ketamine (67 mg/kg) and xylazine (33 mg/kg) were administered, an isolated colonic segment was surgically created, and 10 μg of Clostridium difficile toxin A was injected into the lumen of the colon. After 3 hours, the rats were euthanized and colonic inflammation was assessed by quantitating luminal fluid accumulation and myeloperoxidase (MPO) content in the colon tissue. In addition, histological evaluation of the treated colon segments was completed.
Drug Administration. In studies using chronic administration, sulfasalazine, APAZA™, and 4-APAA were administered in the drinking water at doses ranging from 0.1-100 mg/kg·d for 5 days. Sulfasalazine and APAZA™ were initially dissolved in 0.1 N NaOH at 30 times the desired final concentration and then the pH was adjusted to 8.5 with 1 N HCl and the solution was diluted 30-fold with distilled water. 4-APAA was dissolved in water. On the fifth day, the rats were fasted overnight (with access to their drinking water±sulfasalazine, APAZA™, or 4-APAA ad lib), anesthetized, and isolated colonic segments were surgically created as described below. In studies using acute administration, the rats were pretreated by injection of 4-APAA at doses of 10 or 100 μg in 200 μl of PBS (pH 7.4) into the lumen of the colonic segment using a 27 ga syringe needle. Toxin A (10 μg) in 200 μl of PBS (pH 7.4) was tested alone or injected into the lumen of the colonic segment 30 minutes after 4-APAA using a 27 ga syringe needle.
Surgery. Isolated colonic segments were created in male Sprague-Dawley rats (150-175 g) as described previously for isolated ileal segments (see, Gastroenterol. 111: 1272-1280 (1996) and Proc. Natl. Acad. Sci. USA 91: 947-951 (1994). Rats fasted overnight with free access to drinking water were anesthetized by intramuscular injection of 67 mg/kg ketamine:33 mg/kg xylazine. A midline abdominal incision was made and colonic segments 5 cm in length were created by ligation with 4-0 silk sutures, taking care not to disturb the vascular supply. Toxin A (10 μg) in 400 μl of PBS (pH 7.4) was injected into the lumen of the colonic segment using a 27 ga syringe needle. Control rats were prepared similarly and their colonic segments were injected with the vehicles. The midline incision was then closed with a running suture, and the rats were placed on a heating pad at 37° C. for 3 hours. After 3 hours, the rats were euthanized and samples of the treated colonic segments were taken for analysis in vitro.
Histopathology. The severity of colonic histological damage was assessed using formalin-fixed, paraffin-embedded, H&E-stained sections.
Luminal Fluid Accumulation. Luminal fluid accumulation was measured gravimetrically. After 3 hours of treatment, the isolated colonic segments were removed, weighed, and their lengths were measured. Luminal fluid accumulation is expressed as mg wet weight per cm length.
Myeloperoxidase Activity. Myeloperoxidase (MPO) activity was measured as described previously (see, J. Invest. Dermatol. 78: 206-209 (1982)). Briefly, pieces of control and treated colonic segments were homogenized in 0.5% hexadecyltrimethylammonium bromide in 50 mM KH2PO4 (pH 6), freeze/thawed three times, centrifuged at 4° C. for 2 minutes, and then the absorbance of each supernatant was read at 460 nm at 0, 30, and 60 seconds after the addition of 2.9 ml of o-dianisidine dihydrochloride to 0.1 ml supernatant. The maximal change in absorbance per minute was used to calculate the units of MPO activity based on the molar absorbency index of oxidized o-dianisidine of 1.13×10^4 M^−1 cm^−1. […]

DSS induced colitis = experiment: Dextran sulfate sodium (DSS) colitis in the rat; format: in vivo, Sprague-Dawley rats; conditions: oral gavage bid
Experimental: The effectiveness of APAZA™ and sulfasalazine in ameliorating intestinal inflammation in a model of dextran sulfate sodium (DSS) induced colitis in Sprague-Dawley rats was determined. Thirty-six male Sprague-Dawley rats that were 7-8 weeks old and weighed 240-260 g were studied. […] After completion of the treatment period, rats were euthanized and the efficacy of the test drugs in inhibiting colitis was assessed by the following: • Disease Activity Index Scoring: • Body weight • Colon wet weight: body weight ratios • Colonic Myeloperoxidase (MPO) activity • Histopathological changes of the colon

DNBS colitis = experiment: Study AA-PH-003: oral and rectal APAZA and sulfasalazine in DNBS colitis; format: in vivo, male Lewis rats; parameters: Average Diarrhea Score Day 3: scale not given here; conditions: for Colonic Inflammation Scores: scale 0-2
Experimental: Study AA-PH-003 was designed to evaluate the anti-inflammatory efficacy of oral and rectal doses of APAZATM and sulfasalazine in the DNBS colitis model in rats. […] Thirty-five adult male Lewis rats (body weight 200-250 g) were studied. […] Animal body weights and incidence of diarrhea were recorded daily. […] Animals in the DNBS groups and the parallel deionized water group were sacrificed on day 5. Laparotomies and colectomies were performed and animals were scored for the presence and severity of intestinal adhesions, strictures, inflammation, and ulceration. Colon: body weight ratios were determined and colon histopathology was performed.

[3] = 100 mg/kg·day in drinking water, 5 days
[4] = 100 mg/kg·day in drinking water, 5 days, toxin A 10 μg
[5] = 1 mg/kg·day in drinking water, 5 days
[6] = 10 mg/kg·day in drinking water, 5 days
[7] = orally + 30 mg DNBS, APAZA 200 mg/kg, sulfasalazine 265.6 mg/kg
[8] = rectally + 30 mg DNBS, APAZA 200 mg/kg, sulfasalazine 265.6 mg/kg

plasma concentration at 24 hours [1]: below the limit of detection
Compound: CC(=O)Nc1ccc(CC(=O)O)cc1 [4-aceAPAA, (4-acetylamino-phenyl)-acetic acid, reference compound]

Compound: O=C(O)Cc1ccc(/N=N/c2ccc(CC(=O)O)cc2)cc1 [4-APAA dimer, [4-(4-Carboxymethyl-phenylazo)-phenyl]-acetic acid]
toxin A-induced MPO activity, significance of inhibition [2, 3]: significantly inhibited | toxin A-induced luminal fluid accumulation, significance of inhibition [2, 3]: did not inhibit | toxin A-induced structural damage of the colon (H&E) [2, 3]: did not inhibit | percent inhibition of toxin A-induced MPO activity [2, 4]: 60±9% | percent inhibition of toxin A-induced luminal fluid accumulation [2, 4]: 21±8%

Compound: O=C(O)c1cc(/N=N/c2ccc(S(=O)(=O)Nc3ccccn3)cc2)ccc1O [sulfasalazine, reference compound]
toxin A-induced MPO activity, significance of inhibition [2, 5]: did not significantly inhibit | toxin A-induced luminal fluid accumulation, significance of inhibition [2, 5]: did not significantly inhibit | toxin A-induced structural damage of the colon (H&E) [2, 5]: little effect | toxin A-induced luminal fluid accumulation, significance of inhibition [2, 6]: significantly inhibited | toxin A-induced structural damage of the colon (H&E) [2, 6]: little effect | toxin A-induced MPO activity, significance of inhibition [2, 3]: significantly inhibited | toxin A-induced luminal fluid accumulation, significance of inhibition [2, 3]: significantly inhibited | toxin A-induced structural damage of the colon (H&E) [2, 3]: did inhibit | doses that significantly inhibited toxin A-induced colitis ([2]; chronically for 5 days in drinking water, doses tested 1-100): 100 mg/kg·day | body weights, rats drinking DW versus DSS (DSS induced colitis; days 10 and 11): statistically significant differences | colon wet weight: body weight ratio, DSS versus DW (DSS induced colitis; APAZA 100 mg/kg, sulfasalazine 133 mg/kg): increased | Disease Activity Index (DAI) score (DSS induced colitis; rats drinking 5% DSS, APAZA 100 mg/kg, sulfasalazine 133 mg/kg): significantly greater | colonic MPO activity (DSS induced colitis; rats receiving DSS): significant increase | histological changes of the colon (DSS induced colitis; rats receiving DSS): severe colitis | reduction relative to control in net colon: body weight (% BW) ratio (DNBS colitis; oral groups): 38.4% | Average Diarrhea Score Day 3 (DNBS colitis; [7]): 2.4 | Colon Histopathology (# severe lesions) (DNBS colitis; [7]): 8 | Length of Colonic Inflammation (cm) (DNBS colitis; [7]): 2.3 cm | Mean Body Weight (DNBS colitis; [7]): 215.4 g | Mean Colon Length (cm) (DNBS colitis; [7]): 12.9 cm | Net Colon: Body Weight Ratio (DNBS colitis; [7]): 0.1862 | Colonic Inflammation Scores (DNBS colitis; [7]): 1.4 | Average Diarrhea Score Day 3 (DNBS colitis; [8]): 2 | Length of Colonic Inflammation (cm) (DNBS colitis; [8]): 1.8 cm | Mean Body Weight (DNBS colitis; [8]): 217.0 g | Mean Colon Length (cm) (DNBS colitis; [8]): 12.8 cm | Net Colon: Body Weight Ratio (DNBS colitis; [8]): 0.179 | Colonic Inflammation Scores (DNBS colitis; [8]): 1

t1/2 ([1]; plasma): 11.27 h | plasma concentration at 24 hours [1]: below the limit of detection
Compound: CC(=O)Nc1ccc(O)c(C(=O)O)c1 [acetylated 5-ASA]
